Patent EP0409176B1, “Method and materials for detecting pathology from alterations in estrogen metabolism” (THE ROCKEFELLER UNIVERSITY, priority 1989, dated 1991)

Columns and labels:
[1] = system: estradiol hydroxylation at both the C-2 and C-16α sites; conditions: cited from earlier work
2OHE1 antiserum = assay: Radioimmunoassay cross-reactivity of the anti-2OHE1 antiserum; format: binding; conditions: antiserum raised against bovine serum albumin linked to 2-hydroxyestrone 17-carboxymethyloxime
From the text: Antibodies to 16α-OHE1, E2 and E3 were raised as described previously (Fishman, J., et al., SCIENCE, 204:1089-1091 (1979); Ikegawa, S., et al., J. STEROID BIOCHEM., 18:329-332 (1983)), while the anti-2OHE1 antiserum was a gift of Dr. Kanbegawa (Teikyo University, Japan) and was raised against bovine serum albumin linked to 2-hydroxyestrone 17-carboxymethyloxime. Cross-reactivities of the 2OHE1 antiserum with E1, E2 and E3, 16αOHE1, 2MeOE1, and 2-hydroxyestradiol (2OHE2) were 1.3%, 0.6%, 0.01%, 0.03%, 0.11% and 1.7%, respectively.
Each urine sample (1 or 2 mL) contained approximately 3000 dpm of […] steroid used to determine recovery, and was applied to a C18 Sep-pak cartridge followed by elution with 5 mL of methanol. The eluate was dried in vacuo and hydrolyzed with Glusulase for 12 h at 37°C. The hydrolyzed steroids were again extracted on a C18 Sep-pak cartridge and eluted with 5 mL of methanol. Aliquots of this final eluate were taken for determination of recovery (averaging 90-95%) and duplicate radioimmunoassay (100 µL). In order to prevent auto-oxidation of catecholestrogens, ascorbic acid (1%) was used in all stages of the assay. Radiolabeled steroids and antisera were incubated with the specimens overnight at 4°C, and radioactivity was measured with a Packard model 3000 scintillation counter. Estrogen levels are expressed relative to urinary creatinine concentration. Statistical analysis was performed with an unpaired t-test. Unless otherwise specified, all values are reported as means ± SEM.

[2] = system: cytochrome P-450-dependent metabolism of estradiol; conditions: cited from earlier work
[3] = system: cytochrome P-450-dependent metabolism of estradiol; conditions: 800 mg per dose twice daily oral for two weeks; nine normal male volunteers; P<0.04; cited from earlier work
[4] = system: 16α-hydroxylation of estradiol; conditions: 800 mg per dose twice daily oral for two weeks; nine normal male volunteers; radiometric analysis; cited from earlier work
[5] = system: hepatic estradiol 2-hydroxylation; assay: Extent of estradiol 2-hydroxylation after indole-3-carbinol administration; format: in vivo; conditions: 500 mg daily for one week, humans
Method: (§1) In this study by two of the inventors herein, which study was just recently published, certain dietary indoles were examined for their induction of hepatic estradiol 2-hydroxylation. In particular, indole-3-carbinol (I3C) was administered to humans at a rate of 500 mg daily for one week.

[6] = system: estradiol 2-hydroxylation; assay: Urinary estrogen metabolites and ratios before and after I3C or high fiber diet; format: in vivo, humans
Method: as §1
In conjunction with this study, certain comparative data were developed between the administration of I3C to women and men, and the administration of a high fiber diet to women. The comparative results are presented in Table 6A, B and C below, wherein Table 6A represents the data from women taking I3C, Table 6B represents the data respecting the women who were placed on a high fiber diet, and Table 6C represents the data gathered from the sample of men who were administered I3C.

[7] = after thyroxine administration versus baseline

For `N[C@@H](Cc1cc(I)c(Oc2cc(I)c(O)c(I)c2)c(I)c1)C(=O)O` [Thyroxine, thyroxine], the “Urinary 16αOHE1” value ([1]; Post: following two weeks of thyroxine (4.3 mcg/kg/d), mean ± SEM, Pre 2.07 ± 0.24, NS) is given as 2.24 ± 0.17 µg creatinine, the “Urinary E2” value ([1]; Post: following two weeks of thyroxine (4.3 mcg/kg/d), mean ± SEM, Pre 2.78 ± 0.23, NS) is given as 3.03 ± 0.27 µg creatinine and the “Urinary 2OHE1” value ([1]; Post: following two weeks of thyroxine (4.3 mcg/kg/d), mean ± SEM, Pre 2.88 ± 0.32, P 0.01) is given as 5.30 ± 0.85 µg creatinine. The “Urinary E3” value ([1]; Post: following two weeks of thyroxine (4.3 mcg/kg/d), mean ± SEM, Pre 5.84 ± 0.88, NS) was 5.37 ± 0.78 µg creatinine, the “Urinary E1” value ([1]; Post: following two weeks of thyroxine (4.3 mcg/kg/d), mean ± SEM, Pre 7.36 ± 0.39, NS) was 7.30 ± 0.74 µg creatinine and the “Urinary Total estrogens” value ([1]; Post: following two weeks of thyroxine (4.3 mcg/kg/d), mean ± SEM, Pre 20.93 ± 1.58, NS) was 23.24 ± 2.41. µg creatinine. The “index [2OHE1]/[E3] change after thyroxine administration” value [1, 7] was “nearly doubled”, the “urinary 2-hydroxyestrone after thyroxine administration” value [1, 7] was “significantly greater” and the “[2OHE1]/[E3]” value ([1]; urinary ratio, Post: following two weeks of thyroxine (4.3 mcg/kg/d), Pre 0.56 ± 0.09, P 0.01) was 1.05 ± 0.14.
With `C[C@]12CC[C@@H]3c4cc(O)c(O)cc4CC[C@H]3[C@@H]1CC[C@@H]2O` [2-hydroxyestradiol] the “Cross-reactivities of the 2OHE1 antiserum” value (“Cross-reactivities” below) (2OHE1 antiserum) was 1.7%.
In the case of `COc1cc2c(cc1O)CC[C@@H]1[C@@H]2CC[C@]2(C)C(=O)CC[C@@H]12` [2MeOE1, 2-methoxyestrone], the “Cross-reactivities” value (2OHE1 antiserum) is reported as 0.11%.
In the case of `C[C@]12CC[C@@H]3c4ccc(O)cc4CC[C@H]3[C@@H]1C[C@@H](O)C2=O` [16αOHE1, 16α-hydroxyestrone], the “Cross-reactivities” value (2OHE1 antiserum) is reported as 0.03%.
In the case of `CN/C(=N/CCSCc1nc[nH]c1C)NC#N` [Cimetidine], the “urinary excretion of 2-hydroxyestrone decreased” value ([2]; 800 mg per dose twice daily oral for two weeks, nine normal male volunteers, P<0.0002) is listed as “approximately 25%”, the “Urinary Excretion of Total estrogens” value ([2]; After Cimetidine 800 mg orally twice a day for 14 days, sum of estrone, estradiol, estriol, 16α-hydroxyestrone, 2-hydroxyestrone, n=9, before 10.7 ± 1.1, P 0.02) is listed as 9.9 ± 0.9 nmol/nmol of creatinine and the “Urinary Excretion of 16α-Hydroxyestrone” value ([2]; After Cimetidine 800 mg orally twice a day for 14 days, timed overnight urine, mean ± SEM, n=9, before 1.08 ± 0.11, NS) is listed as 1.05 ± 0.08 nmol/nmol of creatinine. For the same compound, the “Urinary Excretion of Estradiol” value ([2]; After Cimetidine 800 mg orally twice a day for 14 days, timed overnight urine, mean ± SEM, n=9, before 1.28 ± 0.15, NS) was 1.25 ± 0.10 nmol/nmol of creatinine, the “Urinary Excretion of 2-Hydroxyestrone” value ([2]; After Cimetidine 800 mg orally twice a day for 14 days, timed overnight urine, mean ± SEM, n=9, before 1.71 ± 0.20, P 0.0002) was 1.27 ± 0.19 nmol/nmol of creatinine and the “Urinary Excretion of Estrone” value ([2]; After Cimetidine 800 mg orally twice a day for 14 days, timed overnight urine, mean ± SEM, n=9, before 3.80 ± 0.34, P 0.03) was 3.32 ± 0.26 nmol/nmol of creatinine. For the same compound, the “ratio of 2-hydroxyestrone to estriol reduced” value ([2]; after Cimetidine treatment) was “approximately 40%”, the 2-Hydroxyestrone/estriol ([2]; urinary ratio After Cimetidine 800 mg orally twice a day for 14 days, mean ± SEM, n=9, before 0.74 ± 0.18, P 0.015) was 0.47 ± 0.10 and the “serum concentration of estradiol increased” value [3] was “approximately 20%”. The 16α-hydroxylation of estradiol [4] was “unaffected”.
With `OCc1c[nH]c2ccccc12` [I3C, indole-3-carbinol] the “extent of estradiol 2-hydroxylation” value [5] was “significantly increased”, the “[2OHE1]/[E3]” value ([6]; Men Taking I3C (N=7), Post, Pre 1.06 ± 0.11, P <0.02) was 2.04 ± 0.35 and the “[E3]” value ([6]; Men Taking I3C (N=7), Post, Pre 6.4 ± 1.8, P <0.006) was 4.2 ± 1.3. The “[2OHE1]” value ([6]; Men Taking I3C (N=7), Post, Pre 6.6 ± 2.3, NS) was 8.2 ± 3.5, the “[E1]” value ([6]; Men Taking I3C (N=7), Post, Pre 8.4 ± 1.8, NS) was 8.9 ± 2.3 and the “[E3]/[E1]” value ([6]; Women (N=5), Post, Pre 1.04 ± 0.20, NS) was 0.74 ± 0.11. For the same compound, the “[2OHE1]/[E1]” value ([6]; Women (N=5), Post, Pre 1.15 ± 0.24, P <0.05) was 1.53 ± 0.20, the “[2OHE1]/[E3]” value ([6]; Women (N=5), Post, Pre 1.27 ± 0.30, P <0.005) was 2.35 ± 0.50 and the “induction of estradiol 2-hydroxylation” value ([6]; conclusion from Tables 6A-C) was “potent inducers”.
In the case of `C[C@]12CC[C@@H]3c4ccc(O)cc4CC[C@H]3[C@@H]1C[C@@H](O)[C@@H]2O` [E3, estriol], the “Cross-reactivities” value (2OHE1 antiserum) is reported as 0.01%.
